Measurements: patent publication US20210330611A1, “THERAPY FOR NEUROLOGICAL DISEASES/DISORDERS” (priority 2020, published 2021)
“And” between values parts separate entries of the source, which are not always exact repeats. Equal values may be shown once. Read-outs that look alike come from different tables or passages of the source.

Experiments:
[1] = test system: fibrin-induced microglia activation; assay: Image-based assay of fibrin-induced microglia activation (HTS and dose response); format: cell-based, rat; conditions: for inhibition at 10 µM / IC50: Rattus norvegicus, Microglia; for inhibition at 10 µM: primary microglia HTS, fibrin stimulation, increased cell size (>800 μm^2) as marker of activation, read-out: Fibrin % inhibition
[2] = test system: LPS-induced microglia activation; assay: Image-based assay of LPS-induced microglia activation (HTS and dose response); format: cell-based, rat; conditions: Rattus norvegicus, Microglia; for inhibition at 10 µM: primary microglia HTS, LPS stimulation, increased cell size (>800 μm^2) as marker of activation, read-out: LPS % inhibition
[3] = test system: fibrin- and LPS-induced microglia activation; assay: cells; format: cell-based, rat; conditions: for inhibition at 10 µM: Rattus norvegicus
in vitro [4] = conditions: rat, Cell Toxicity IC50 (uM) [cFib assay]
in vitro [5] = conditions: rat
primary rat microglia [6] = assay: Cell toxicity (dead cells, size <150 μm2) in LPS assay; conditions: for LPS % cell toxicity: primary microglia HTS, LPS stimulation, decreased size (<150 μm^2) as marker of toxicity; for IC50: read-out: Cell Toxicity IC50 (uM) [LPS assay], LPS assay
primary rat microglia [7] = assay: Cell toxicity (dead cells, size <150 μm2) in coated fibrin (cFib) assay; conditions: primary microglia HTS, fibrin stimulation; decreased size (<150 μm^2) as marker of toxicity;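 for Fibrin % cell toxicity: share of dead cells sized under 150 µm2 at 10 µM in fibrin-stimulated microglia HTS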
[8] = 48 h, Table 1, dose response 0.001-20 μM, triplicates, primary rat microglia, 48 h, read-out: LPS IC50
[9] = LPS-induced microglia activation, dose response, read-out: LPS IC50 (uM) (Suppl. Table 7)
[10] = Table 3, read-out: LPS IC50 (uM) (Suppl. Table 7)
[11] = dose response, LPS-induced microglia activation, read-out: LPS IC50
[12] = HTS of 1907 compounds, quadrant by fibrin and LPS inhibition
[13] = Microglia, Table 3, read-out: Cherry-picked Hit (Suppl. Table 7)
[14] = Microglia, HTS hit classification, read-out: Hit
[15] = quadrant by fibrin and LPS inhibition in HTS of 1907 compounds
[16] = 48 h, Table 1, dose response 0.001-20 μM, triplicates, primary rat microglia, 48 h, read-out: Fibrin IC50
[17] = dose response, fibrin-induced microglia activation, read-out: Fibrin IC50
[18] = fibrin-induced microglia activation, dose response, read-out: Fibrin IC50 (uM) (Suppl. Table 7)
[19] = hit classification in microglia HTS, read-out: Cherry-picked Hit (Suppl. Table 7)
[20] = Table 3, read-out: Fibrin IC50 (uM) (Suppl. Table 7)

Compound	inhibition at 10 µM [1]	IC50 [2, 8]	inhibition at 10 µM ([2]; 48 h)	IC50 [2, 9]	IC50 [2, 11]	Quadrant (FIG. 5b) [3, 12]	inhibition at 10 µM [3, 13]	inhibition at 10 µM [3, 14]	Quadrant (FIG. 5b) ([3]; Table 1, screen at 10 μM)	Quadrant (FIG. 5b) ([3]; Table 3, screen at 10 μM)	Quadrant (FIG. 5b) [3, 15]	IC50 (in vitro [4]; Table 3)	IC50 (in vitro [4]; cFib assay)	IC50 (in vitro [5])	LPS % cell toxicity (primary rat microglia [6])	Fibrin % cell toxicity (primary rat microglia [7])	IC50 [1, 16]	IC50 [1, 17]	IC50 [1, 18]	inhibition at 10 µM [3, 19]	further results
C[C@]12C=CC(=O)C=C1CC[C@@H]1[C@@H]2C(=O)C[C@@]2(C)[C@H]1CC[C@]2(O)C(=O)CO [Prednisone, reference compound]	66%	> 20 µM	45%	> 20 µM	> 20 µM	Q3	> 50%	> 50%	Q3	Q3	Q3	> 20 µM	> 20 µM	> 20 µM	1% and 0%	1% and 2%					Fibrin Selectivity [1]: 6; IC50 [2, 10]: > 20 µM; IC50 (primary rat microglia [6]): > 20 µM
COC(=O)Nc1nc2ccc(Sc3ccccc3)cc2[nH]1 [Fenbendazole, reference compound]	75%	4 µM	10%	4 µM	4 µM	Q3		> 50%	Q3		Q3		> 20 µM	> 20 µM	1%	1%	3 µM	3 µM	3 µM	> 50%	
CC(=O)O[C@H]1C[C@@]2(C)[C@@H](C[C@@H](O)[C@H]3[C@@]4(C)CC[C@@H](O)[C@@H](C)[C@@H]4CC[C@@]32C)/C1=C(\CCC=C(C)C)C(=O)O [Fusidic acid, reference compound]	77%	> 20 µM	74%	> 20 µM	> 20 µM	Q2		> 50%	Q2		Q2		> 20 µM	> 20 µM	2%	1%	19 µM	19 µM	19 µM	> 50%	
CCOC(=O)[N-]c1cn(N2CCOCC2)n[o+]1 [Molsidomine, reference compound]	103%	> 20 µM	124%	> 20 µM	> 20 µM	Q2		> 50%	Q2		Q2		> 20 µM	> 20 µM	5%	2%	> 20 µM	> 20 µM	> 20 µM	> 50%	
Cc1cccc(C)c1NC(=O)c1ccccc1C(=O)O [Ftaxilide, reference compound]	78%	> 20 µM	42%	> 20 µM	> 20 µM	Q3		> 50%	Q3		Q3		> 20 µM	> 20 µM	1%	2%	> 20 µM	> 20 µM	> 20 µM	> 50%	
Cc1cccc(N(C)C(=S)Oc2ccc3ccccc3c2)c1 [Tolnaftate, reference compound]	76%		60%			Q2	> 50%	> 50%	Q2	Q2	Q2	> 20 µM	> 20 µM	> 20 µM	1%	1%	2 µM	2 µM	2 µM		IC50 [1, 20]: 2 µM; IC50 (primary rat microglia [6]): > 20 µM
CC(=O)OCC(=O)[C@H]1CC[C@H]2[C@@H]3CCC4=CC(=O)CC[C@]4(C)[C@H]3CC[C@]12C [Desoxycorticosterone acetate, reference compound]	83%	5 µM	47%	5 µM	5 µM	Q3	> 50%	> 50%	Q3	Q3	Q3	> 20 µM	> 20 µM	> 20 µM	1%	1%	0.5 µM	0.5 µM	0.5 µM		Fibrin Selectivity [1]: 10; Fibrin Selectivity (LOG10) [1]: 0.98; IC50 [1, 20]: 0.5 µM; IC50 [2, 10]: 5 µM; IC50 (primary rat microglia [6]): > 20 µM
CCCCC(=O)O[C@]1(C(=O)CO)[C@@H](C)C[C@H]2[C@@H]3CCC4=CC(=O)C=C[C@]4(C)[C@@]3(F)[C@@H](O)C[C@@]21C [Betamethasone valerate, reference compound]	69%	> 20 µM	55%	> 20 µM	> 20 µM	Q2		> 50%	Q2		Q2		> 20 µM	> 20 µM	1%	1%	20 µM	20 µM	20 µM	> 50%	
C=C1C[C@H]2[C@@H]3C=C(C)C4=CC(=O)CC[C@]4(C)[C@H]3CC[C@]2(C)[C@@]1(OC(C)=O)C(C)=O [Melengestrol acetate, reference compound]	86%	13 µM	67%	13 µM	13 µM	Q2	> 50%	> 50%	Q2	Q2	Q2	> 20 µM	> 20 µM	> 20 µM	2%	2%	0.07 µM	0.07 µM	0.07 µM		Fibrin Selectivity [1]: 196; Fibrin Selectivity (LOG10) [1]: 2.29; IC50 [1, 20]: 0.07 µM; IC50 ([1]; Table 6, read-out: Fibrin IC50 (uM) (Suppl. Table 7)): 0.07 µM; Fibrin Selectivity (LOG10) ([1]; fibrin vs LPS, LOG10, Table 6): 2.29; Fibrin Selectivity ([1]; fibrin vs LPS, Table 6): 196; IC50 [2, 10]: 13 µM; IC50 ([2]; Table 6, read-out: LPS IC50 (uM) (Suppl. Table 7)): 13 µM; Quadrant (FIG. 5b) ([3]; microglia HTS, Table 6): Q2; IC50 (in vitro [4]; cFib assay, Table 6): > 20 µM; IC50 (primary rat microglia [6]): > 20 µM; IC50 (primary rat microglia [6]; Table 6): > 20 µM
Cc1cc(-n2c(=O)[nH]c(=O)n(C)c2=O)ccc1Oc1ccc(SC(F)(F)F)cc1 [Toltrazuril, reference compound]	104%	> 20 µM	90%	> 20 µM	> 20 µM	Q2		> 50%	Q2		Q2		> 20 µM	> 20 µM	2%	3%	> 20 µM	> 20 µM	> 20 µM	> 50%	
